Source: ChEMBL document CHEMBL5579837, “Dual 5-HT6/SERT ligands for mitigating neuropsychiatric symptoms of dementia exerting neuroprotection against amyloid-β toxicity, memory preservation, and antidepressant-like properties” (Eur J Med Chem, 2024)
≈ marks a conversion by molar mass, not a printed value.

Columns and labels:
[1] = target: Voltage-gated inwardly rectifying potassium channel KCNH2 (Homo sapiens, UniProt Q12809); experiment: Inhibition of hERG expressed in CHO cells measured for 30 mins by electrophysiological automated patch clamp assay; assay type: toxicity, cell-based
[2] = in vitro; conditions: rat, liver microsomes
[3] = in vitro; conditions: PAMPA
Description: Permeability of compound by PAMPA based LC-MS analysis

[4] = in vitro; conditions: human, HepG2 cells
Description: Hepatotoxicity in human HepG2 cells incubated for 24 hrs by PrestoBlue reagent based assay

[5] = in vitro; conditions: mouse, HT-22 cells
Description: Neurotoxicity in mouse HT-22 cells incubated for 24 hrs by PrestoBlue reagent based assay

[6] = target: 5-hydroxytryptamine receptor 6 (Homo sapiens, UniProt P50406)
Description: Displacement of [3H]-LSD from human 5-HT6 receptor extracted from CHO-K1 cell membrane assessed as inhibition constant incubated for 60 mins by microbeta2 scintillation counter analysis

[7] = physchem; conditions: PBS, pH 7.4
[8] = in vitro; conditions: rat, liver microsomes; remark: listed apart in the source

5-hydroxytryptamine receptor 6, sequence (P50406 whole entry): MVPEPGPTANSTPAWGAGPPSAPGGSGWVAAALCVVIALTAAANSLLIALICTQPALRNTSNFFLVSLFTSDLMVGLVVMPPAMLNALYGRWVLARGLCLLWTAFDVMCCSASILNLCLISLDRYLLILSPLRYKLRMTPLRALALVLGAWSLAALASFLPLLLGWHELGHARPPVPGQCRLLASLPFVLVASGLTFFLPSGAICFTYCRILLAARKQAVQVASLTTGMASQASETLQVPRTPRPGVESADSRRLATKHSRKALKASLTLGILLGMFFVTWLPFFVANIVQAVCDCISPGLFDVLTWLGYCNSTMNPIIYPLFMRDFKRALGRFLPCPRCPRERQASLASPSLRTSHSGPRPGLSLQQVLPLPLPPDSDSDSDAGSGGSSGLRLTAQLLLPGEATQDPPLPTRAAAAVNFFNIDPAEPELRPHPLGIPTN
Voltage-gated inwardly rectifying potassium channel KCNH2, sequence (Q12809 whole entry): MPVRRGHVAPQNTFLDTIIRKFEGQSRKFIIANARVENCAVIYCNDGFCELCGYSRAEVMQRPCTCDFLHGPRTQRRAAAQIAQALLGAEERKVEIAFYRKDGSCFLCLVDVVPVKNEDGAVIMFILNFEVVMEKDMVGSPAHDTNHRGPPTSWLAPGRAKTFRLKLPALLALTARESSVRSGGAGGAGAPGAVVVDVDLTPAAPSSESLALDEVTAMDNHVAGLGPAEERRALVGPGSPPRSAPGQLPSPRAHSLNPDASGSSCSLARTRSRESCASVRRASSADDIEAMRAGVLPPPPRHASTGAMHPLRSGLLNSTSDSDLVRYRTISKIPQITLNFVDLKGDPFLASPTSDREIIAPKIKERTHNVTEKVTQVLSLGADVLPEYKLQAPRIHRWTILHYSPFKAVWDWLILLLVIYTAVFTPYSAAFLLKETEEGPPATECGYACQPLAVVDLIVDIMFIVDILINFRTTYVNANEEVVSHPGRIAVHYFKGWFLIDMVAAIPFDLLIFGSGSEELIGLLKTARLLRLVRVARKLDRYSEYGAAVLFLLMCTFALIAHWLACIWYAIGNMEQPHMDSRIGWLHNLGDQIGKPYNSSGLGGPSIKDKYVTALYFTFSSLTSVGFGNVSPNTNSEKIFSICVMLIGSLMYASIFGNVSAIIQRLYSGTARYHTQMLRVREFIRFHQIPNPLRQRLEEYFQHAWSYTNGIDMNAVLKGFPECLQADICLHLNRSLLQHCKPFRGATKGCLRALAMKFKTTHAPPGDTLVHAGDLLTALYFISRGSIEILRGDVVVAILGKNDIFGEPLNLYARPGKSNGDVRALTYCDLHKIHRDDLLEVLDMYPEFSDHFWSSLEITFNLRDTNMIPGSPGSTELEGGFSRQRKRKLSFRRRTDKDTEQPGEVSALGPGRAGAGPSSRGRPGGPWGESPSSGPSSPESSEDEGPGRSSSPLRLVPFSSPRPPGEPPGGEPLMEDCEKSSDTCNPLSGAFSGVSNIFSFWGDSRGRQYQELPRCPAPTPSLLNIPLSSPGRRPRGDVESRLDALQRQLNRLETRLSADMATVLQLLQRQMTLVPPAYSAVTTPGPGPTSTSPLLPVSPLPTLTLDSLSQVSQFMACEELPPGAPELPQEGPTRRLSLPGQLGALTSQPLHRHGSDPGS

SMILES | IC50 [1] | further results
Cc1c(OCc2ccccc2)cccc1N1CCN(CCc2c[nH]c3ccc(F)cc23)CC1 | 2800 nM | –
O=c1[nH]c2c(N3CCN(CCc4c[nH]c5ccc(Cl)cc45)CC3)cccc2n1Cc1ccccc1 | 4000 nM | microsomal CLint [2]: < 116 µL/min/mg; Papp [3]: 2.75 ×10⁻⁶ cm/s; IC50 at 24 h [4]: 23000 nM; IC50 at 24 h [5]: 47000 nM; Ki [6]: 8 nM; solubility at 24 h [7]: 23.4 µM (≈ 11.4 µg/mL); half-life [8]: > 1 h
Cc1c(OCc2ccccc2)cccc1N1CCN(CCCc2c[nH]c3ccc(F)cc23)CC1 | 3300 nM | –
O=c1[nH]c2c(N3CCN(CCCc4c[nH]c5ccc(Cl)cc45)CC3)cccc2n1Cc1ccccc1 | 2500 nM | –
O=S(=O)(c1ccccc1)n1ccc2c(N3CCN(CCc4c[nH]c5ccc(Cl)cc45)CC3)cccc21 | 21300 nM | Ki [6]: 19 nM
O=c1[nH]c2c(N3CCN(CCCc4c[nH]c5ccc(F)cc45)CC3)cccc2n1Cc1ccccc1 | 2500 nM | –
Cc1c(OCc2ccccc2)cccc1N1CCN(CCc2c[nH]c3ccc(C#N)cc23)CC1 | 3600 nM | –
N#Cc1ccc2[nH]cc(CCN3CCC(c4cccc5c(S(=O)(=O)c6ccccc6)c[nH]c45)CC3)c2c1 | 1100 nM | –
O=c1[nH]c2c(N3CCN(CCc4c[nH]c5ccc(F)cc45)CC3)cccc2n1Cc1ccccc1 | 3900 nM | Ki [6]: 116 nM
N#Cc1ccc2[nH]cc(CCCCN3CCC(c4cccc5c(S(=O)(=O)c6ccccc6)c[nH]c45)CC3)c2c1 | 4600 nM | –
N#Cc1ccc2[nH]cc(CCCN3CCC(c4cccc5c(S(=O)(=O)c6ccccc6)c[nH]c45)CC3)c2c1 | 28100 nM | –
O=S(=O)(c1ccccc1)c1c[nH]c2c(C3CCN(CCCc4c[nH]c5ccc(Cl)cc45)CC3)cccc12 | 9500 nM | –
N#Cc1ccc2[nH]cc(CCN3CCN(c4cccc5c4[nH]c(=O)n5Cc4ccccc4)CC3)c2c1 | 1700 nM | –
Cc1c(OCc2ccccc2)cccc1N1CCN(CCc2c[nH]c3ccc(Cl)cc23)CC1 | 6600 nM | Ki [6]: 142 nM
O=S(=O)(c1ccccc1)n1ccc2c(N3CCN(CCCc4c[nH]c5ccc(Cl)cc45)CC3)cccc21 | 700 nM | –
O=S(=O)(c1ccccc1)c1c[nH]c2c(C3CCN(CCCc4c[nH]c5ccc(F)cc45)CC3)cccc12 | 5000 nM | –
O=S(=O)(c1ccccc1)n1ccc2c(N3CCN(CCc4c[nH]c5ccc(F)cc45)CC3)cccc21 | 1300 nM | –
N#Cc1ccc2[nH]cc(CCN3CCN(c4cccc5c4ccn5S(=O)(=O)c4ccccc4)CC3)c2c1 | 8900 nM | –
Cc1c(OCc2ccccc2)cccc1N1CCN(CCCc2c[nH]c3ccc(C#N)cc23)CC1 | 1100 nM | –
Cc1c(OCc2ccccc2)cccc1N1CCN(CCCc2c[nH]c3ccc(Cl)cc23)CC1 | 13600 nM | –
N#Cc1ccc2[nH]cc(CCCN3CCN(c4cccc5c4ccn5S(=O)(=O)c4ccccc4)CC3)c2c1 | 1700 nM | –
N#Cc1ccc2[nH]cc(CCCCN3CCN(c4cccc5c4ccn5S(=O)(=O)c4ccccc4)CC3)c2c1 | 1600 nM | –
O=S(=O)(c1ccccc1)c1c[nH]c2c(C3CCN(CCc4c[nH]c5ccc(Cl)cc45)CC3)cccc12 | 7000 nM | –
Cc1c(OCc2ccccc2)cccc1N1CCN(CCCCc2c[nH]c3ccc(C#N)cc23)CC1 | 4900 nM | –
O=S(=O)(c1ccccc1)c1c[nH]c2c(C3CCN(CCc4c[nH]c5ccc(F)cc45)CC3)cccc12 | 29300 nM | Ki [6]: 25 nM
N#Cc1ccc2[nH]cc(CCCCN3CCN(c4cccc5c4[nH]c(=O)n5Cc4ccccc4)CC3)c2c1 | 1100 nM | –
O=S(=O)(c1ccccc1)n1ccc2c(N3CCN(CCCc4c[nH]c5ccc(F)cc45)CC3)cccc21 | 2900 nM | –
N#Cc1ccc2[nH]cc(CCCN3CCN(c4cccc5c4[nH]c(=O)n5Cc4ccccc4)CC3)c2c1 | 1200 nM | –
